In PubChem BioAssay (NCI) one finds GI50 and TGI data, which are given here for 8 compounds.

Structures are written as SMILES.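 Compound exposure: 48 hours, 5 concentrations, 96-well plates. GI50 is the concentration that inhibits growth by half. TGI: total growth inhibition.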 Some results are limits rather than exact numbers.

Test systems include PC-3 prostate; SR leukemia; MCF7 breast; BT-549 breast; NCI/ADR-RES ovarian; SF-295 CNS; HS 578T breast; COLO 205 colon; ACHN renal; OVCAR-5 ovarian.
Holding throughout (assay): NCI anticancer screen, dose series, 48 h

On to `N=c1ccn(O)cc1/C=C1/C(=O)Nc2ccccc21`, for which the GI50 with PC-3 prostate was > 100000 nM; in the test with SR leukemia, > 100 µM; with MCF7 breast it was > 100 µM; with BT-549 breast, > 100 µM; in the test with NCI/ADR-RES ovarian, > 100 µM; with SF-295 CNS, > 100 µM. For the same compound, the GI50 in the test with HS 578T breast is > 100000 nM; in the test with COLO 205 colon, > 100000 nM; in the test with ACHN renal, > 100000 nM; in the test on OVCAR-5 ovarian, > 100 µM. Also, the TGI in the test on PC-3 prostate, in the test with SR leukemia, with MCF7 breast, with BT-549 breast, with NCI/ADR-RES ovarian and in the test on SF-295 CNS was > 100 µM each time. In addition, the TGI with HS 578T breast, in the test with COLO 205 colon, with ACHN renal and in the test with OVCAR-5 ovarian was > 100 µM each time.

With `CC(C)=CCC[C@](C)(O)[C@H]1CC[C@]2(C)[C@@H]1CC[C@@H]1[C@@]3(C)CC/C(=N/O)C(C)(C)[C@@H]3CC[C@]12C`, the GI50 in the test with PC-3 prostate was 7870 nM; with SR leukemia it was 7.65 µM; with MCF7 breast it was 4.2 µM; in the test with BT-549 breast, 27.4 µM; in the test with NCI/ADR-RES ovarian, 18.9 µM; in the test with SF-295 CNS it was 12.2 µM. For the same compound, the GI50 in the test with HS 578T breast is 20200 nM; in the test on COLO 205 colon, 11400 nM; with ACHN renal, 11600 nM; in the test on OVCAR-5 ovarian it was 22.2 µM. Also, the TGI with PC-3 prostate is 35.9 µM; in the test on SR leukemia, 49.4 µM; in the test on MCF7 breast it was > 100 µM; in the test on BT-549 breast, > 100 µM; with NCI/ADR-RES ovarian, > 100 µM; in the test on SF-295 CNS it was 42.3 µM. Moreover, the TGI in the test on HS 578T breast was > 100 µM; in the test on COLO 205 colon, > 100 µM; in the test on ACHN renal, 35.7 µM; with OVCAR-5 ovarian it was > 100 µM.

For the compound `O=C(Cc1ccc(F)c(F)c1)Nc1cc(C2(C(F)(F)F)CC2)nn1Cc1ccccc1`, the GI50 with PC-3 prostate was 4670 nM; in the test with SR leukemia, 3.89 µM; in the test with MCF7 breast it was 3.9 µM; in the test on BT-549 breast, 3.73 µM; in the test with NCI/ADR-RES ovarian, 3.98 µM; with SF-295 CNS it was 3.77 µM. The GI50 was 1530 nM in the test with HS 578T breast, 2700 nM with COLO 205 colon, 3850 nM in the test on ACHN renal and 4 µM in the test with OVCAR-5 ovarian. For the same compound, the TGI with PC-3 prostate was > 15 µM; with SR leukemia, > 15 µM; in the test with MCF7 breast, > 15 µM; in the test on BT-549 breast, > 15 µM; in the test with NCI/ADR-RES ovarian, > 15 µM; in the test with SF-295 CNS, 14.7 µM. Besides, the TGI with HS 578T breast is 10.1 µM; in the test on COLO 205 colon, 6.34 µM; with ACHN renal, 14.2 µM; with OVCAR-5 ovarian it was > 15 µM.

Consider `c1ccc(CN2COc3c(ccc4c3OCN(Cc3ccccc3)C4)C2)cc1`, for which the GI50 with PC-3 prostate is 579 nM; with SR leukemia, 0.534 µM; with MCF7 breast, 0.515 µM; in the test on BT-549 breast it was 2.92 µM; in the test on NCI/ADR-RES ovarian it was 0.256 µM; in the test on SF-295 CNS it was 0.554 µM. In addition, the GI50 in the test with HS 578T breast was 1910 nM; in the test with COLO 205 colon it was 1960 nM; in the test with ACHN renal it was 316 nM; with OVCAR-5 ovarian, 0.857 µM. Further, the TGI in the test on PC-3 prostate, in the test with SR leukemia, with MCF7 breast, in the test on BT-549 breast, in the test with NCI/ADR-RES ovarian and with SF-295 CNS was > 100 µM in each case. The TGI in the test on HS 578T breast is > 100 µM; in the test with COLO 205 colon, > 42 µM; in the test with ACHN renal, > 100 µM; in the test with OVCAR-5 ovarian, > 100 µM.

For the compound `CC(C)O/N=C/c1cc(NC(=S)OC(C)C)ccc1Cl`, the TGI is > 100 µM with PC-3 prostate; 45 µM in the test on SR leukemia; > 68.8 µM in the test on MCF7 breast; > 100 µM with BT-549 breast; > 84.9 µM in the test with NCI/ADR-RES ovarian; 62.7 µM in the test with SF-295 CNS. Moreover, the TGI in the test on HS 578T breast was > 79.2 µM; in the test with COLO 205 colon it was > 81.3 µM; with ACHN renal, 97.6 µM; in the test with OVCAR-5 ovarian, > 86.1 µM.

For the compound `CC(=O)C1=C(O)C=C2Oc3c(C(=O)/C=C/c4c(Cl)cccc4Cl)c(O)c(C)c(O)c3[C@]2(C)C1=O`, the GI50 was 596 nM in the test on PC-3 prostate; 1.52 µM with SR leukemia; 0.436 µM with MCF7 breast; 1.43 µM in the test with BT-549 breast; 0.786 µM in the test on NCI/ADR-RES ovarian; 0.634 µM in the test with SF-295 CNS. Moreover, the GI50 is 2390 nM in the test on HS 578T breast, 2340 nM in the test with COLO 205 colon, 1640 nM with ACHN renal and 3.09 µM in the test on OVCAR-5 ovarian. Further, the TGI in the test with PC-3 prostate was found to be 2.49 µM; in the test with SR leukemia, 7.7 µM; in the test on MCF7 breast, 2.75 µM; in the test on BT-549 breast it was 5.28 µM; in the test with NCI/ADR-RES ovarian it was 5.21 µM; with SF-295 CNS, 3.17 µM. Moreover, the TGI in the test on HS 578T breast is 7.86 µM; in the test with COLO 205 colon it was 5.25 µM; in the test on ACHN renal it was 8.07 µM; in the test with OVCAR-5 ovarian it was 8.13 µM.

For the compound `S=C(Nc1ccc(-c2nc3ccccc3[nH]2)cc1)Nc1ccc(-c2nc3ccccc3[nH]2)cc1`, the GI50 was > 100000 nM in the test with PC-3 prostate; 63.4 µM in the test with SR leukemia; 28.8 µM in the test with MCF7 breast; > 100 µM with BT-549 breast; 66.9 µM with NCI/ADR-RES ovarian; 48.4 µM with SF-295 CNS. The GI50 with HS 578T breast is > 100000 nM; in the test with COLO 205 colon, > 100000 nM; in the test with ACHN renal it was > 100000 nM; in the test on OVCAR-5 ovarian, > 100 µM. For the same compound, the TGI in the test with PC-3 prostate, in the test on SR leukemia, in the test on MCF7 breast, in the test with BT-549 breast, with NCI/ADR-RES ovarian and in the test with SF-295 CNS was > 100 µM throughout. Further, the TGI in the test on HS 578T breast, with COLO 205 colon, with ACHN renal and with OVCAR-5 ovarian was > 100 µM throughout.

`CNC(=O)c1ccccc1Nc1nc(Nc2cc(OC)c(OC)c(OC)c2)ncc1Br`: the GI50 with PC-3 prostate is 131 nM; in the test on SR leukemia, 0.0254 µM; with MCF7 breast it was 0.0374 µM; with BT-549 breast it was 0.0704 µM; in the test on NCI/ADR-RES ovarian, 0.0496 µM; in the test on SF-295 CNS, 0.0282 µM. Further, the GI50 is 25.9 nM in the test with HS 578T breast, 15.1 nM in the test with COLO 205 colon, 20.9 nM in the test on ACHN renal and 0.0321 µM in the test with OVCAR-5 ovarian. Also, the TGI turned out to be 10.9 µM with PC-3 prostate; 2.78 µM in the test with MCF7 breast; 1.17 µM with BT-549 breast; 1.81 µM in the test on NCI/ADR-RES ovarian; 0.868 µM in the test on SF-295 CNS; 0.569 µM with HS 578T breast. Moreover, the TGI came out at 0.0591 µM in the test with COLO 205 colon, 15.6 µM with ACHN renal and 31.7 µM in the test on OVCAR-5 ovarian.
